Source: ChEMBL document CHEMBL1201862, “PubChem BioAssay data set” (2004)
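Protocol summary: plate cells (96-well), add compound at 5 concentrations, incubate 48 h, interpolate endpoints linearly. GI50 is the concentration that inhibits growth by half.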 Active and inactive are the calls of the source. No stated cut-off is given here; in the data, active = GI50 up to about 1.1 µM and inactive = higher.

What was measured:
Assay in all cases: inhibition of tumour cell growth, NCI panel, 48 h
[1] = tested on: 786-0
[2] = tested on: A498
[3] = tested on: A549
[4] = tested on: ACHN
[5] = tested on: CAKI-1
[6] = tested on: CCRF-CEM
[7] = tested on: DLD-1
[8] = tested on: DMS-114
[9] = tested on: EKVX
[10] = tested on: HCC 2998
[11] = tested on: HCT-116
[12] = tested on: HCT-15
[13] = tested on: HOP-92
[14] = tested on: HT-29
[15] = tested on: IGROV-1
[16] = tested on: K562
[17] = tested on: KM-20L2
[18] = tested on: KM12
[19] = tested on: LOX IMVI
[20] = tested on: LXFL 529
[21] = tested on: M14
[22] = tested on: Malme-3M
[23] = tested on: NCI-H226
[24] = tested on: NCI-H23
[25] = tested on: NCI-H460
[26] = tested on: OVCAR-4
[27] = tested on: OVCAR-5
[28] = tested on: OVCAR-8
[29] = tested on: RPMI-8226
[30] = tested on: RXF 393
[31] = tested on: SF-268
[32] = tested on: SF-295
[33] = tested on: SF-539
[34] = tested on: SK-MEL-28
[35] = tested on: SK-MEL-2
[36] = tested on: SK-MEL-5
[37] = tested on: SK-OV-3
[38] = tested on: SN12C
[39] = tested on: SNB-19
[40] = tested on: SNB-75
[41] = tested on: SR
[42] = tested on: SW-620
[43] = tested on: TK-10
[44] = tested on: U-251
[45] = tested on: UACC-257
[46] = tested on: UACC-62
[47] = tested on: UO-31
[48] = tested on: BT-549
[49] = tested on: COLO 205
[50] = tested on: DU-145
[51] = tested on: HL-60
[52] = tested on: HOP-62
[53] = tested on: Hs-578T
[54] = tested on: MCF7
[55] = tested on: MDA-MB-231
[56] = tested on: MDA-MB-435
[57] = tested on: MDA-N
[58] = tested on: MOLT-4
[59] = tested on: NCI-H522
[60] = tested on: NCI/ADR-RES
[61] = tested on: OVCAR-3
[62] = tested on: PC-3
[63] = tested on: T47D
[64] = tested on: DMS-273
[65] = tested on: SNB-78
[66] = tested on: M19-MEL

## COC(=O)/C(=C/c1ccc(OC)cc1)NC(=O)c1ccccc1
[1]
  GI50: > 100 µM (inactive)
[2]
  GI50: > 100 µM (inactive)
[3]
  GI50: > 100 µM (inactive)
[4]
  GI50: > 100 µM (inactive)
[5]
  GI50: > 100 µM (inactive)
[6]
  GI50: 2 µM (inactive)
[7]
  GI50: > 100 µM (inactive)
[8]
  GI50: > 100 µM (inactive)
[9]
  GI50: > 100 µM (inactive)
[10]
  GI50: > 100 µM (inactive)
[11]
  GI50: > 100 µM (inactive)
[12]
  GI50: > 100 µM
[13]
  GI50: > 100 µM (inactive)
[14]
  GI50: > 100 µM (inactive)
[15]
  GI50: > 100 µM (inactive)
[16]
  GI50: > 100 µM (inactive)
[17]
  GI50: > 100 µM (inactive)
[18]
  GI50: > 100 µM (inactive)
[19]
  GI50: > 100 µM (inactive)
[20]
  GI50: > 100 µM (inactive)
[21]
  GI50: > 100 µM (inactive)
[22]
  GI50: > 100 µM (inactive)
[23]
  GI50: > 100 µM (inactive)
[24]
  GI50: > 100 µM (inactive)
[25]
  GI50: > 100 µM (inactive)
[26]
  GI50: > 100 µM (inactive)
[27]
  GI50: > 100 µM (inactive)
[28]
  GI50: > 100 µM (inactive)
[29]
  GI50: > 100 µM (inactive)
[30]
  GI50: > 100 µM (inactive)
[31]
  GI50: > 100 µM (inactive)
[32]
  GI50: > 100 µM (inactive)
[33]
  GI50: > 100 µM (inactive)
[34]
  GI50: > 100 µM (inactive)
[35]
  GI50: > 100 µM (inactive)
[36]
  GI50: > 100 µM (inactive)
[37]
  GI50: > 100 µM (inactive)
[38]
  GI50: > 100 µM (inactive)
[39]
  GI50: > 100 µM (inactive)
[40]
  GI50: > 100 µM (inactive)
[41]
  GI50: > 100 µM (inactive)
[42]
  GI50: > 100 µM (inactive)
[43]
  GI50: > 100 µM (inactive)
[44]
  GI50: > 100 µM (inactive)
[45]
  GI50: > 100 µM (inactive)
[46]
  GI50: > 100 µM (inactive)
[47]
  GI50: > 100 µM (inactive)

## N=C1C(=N)c2ccccc2-c2ccccc21
[1]
  GI50: 2.09 µM (inactive)
[2]
  GI50: 2.24 µM (inactive)
[3]
  GI50: 1.74 µM (inactive)
[4]
  GI50: 1.41 µM (inactive)
[48]
  GI50: 0.914 µM (active)
[5]
  GI50: 1.71 µM (inactive)
[6]
  GI50: 0.376 µM (active)
[49]
  GI50: 1.73 µM (inactive)
[50]
  GI50: 1.49 µM (inactive)
[9]
  GI50: 1.9 µM (inactive)
[10]
  GI50: 1.96 µM (inactive)
[11]
  GI50: 0.384 µM (active)
[12]
  GI50: 1.55 µM
[51]
  GI50: 0.194 µM (active)
[52]
  GI50: 1.67 µM (inactive)
[13]
  GI50: 2.49 µM (inactive)
[14]
  GI50: 1.83 µM (inactive)
[53]
  GI50: 2.64 µM (inactive)
[15]
  GI50: 2 µM (inactive)
[16]
  GI50: 0.513 µM (active)
[18]
  GI50: 1.85 µM (inactive)
[19]
  GI50: 0.31 µM (active)
[21]
  GI50: 1.05 µM (active)
[54]
  GI50: 0.792 µM (active)
[55]
  GI50: 0.313 µM (active)
[56]
  GI50: 0.199 µM (active)
[57]
  GI50: 0.177 µM (active)
[58]
  GI50: 0.337 µM (active)
[22]
  GI50: 1.19 µM (inactive)
[23]
  GI50: 1.82 µM (inactive)
[24]
  GI50: 0.6 µM (active)
[25]
  GI50: 1.38 µM (inactive)
[59]
  GI50: 1.21 µM (inactive)
[60]
  GI50: 0.492 µM (active)
[61]
  GI50: 0.354 µM (active)
[26]
  GI50: 1.45 µM (inactive)
[27]
  GI50: 2 µM (inactive)
[28]
  GI50: 1.03 µM (active)
[62]
  GI50: 1.52 µM (inactive)
[29]
  GI50: 0.959 µM (active)
[30]
  GI50: 1.82 µM (inactive)
[31]
  GI50: 2.1 µM (inactive)
[32]
  GI50: 1.62 µM (inactive)
[33]
  GI50: 0.787 µM (active)
[34]
  GI50: 1.35 µM (inactive)
[35]
  GI50: 1.55 µM (inactive)
[36]
  GI50: 0.308 µM (active)
[37]
  GI50: 1.7 µM (inactive)
[38]
  GI50: 1.19 µM (inactive)
[39]
  GI50: 1.53 µM (inactive)
[40]
  GI50: 1.82 µM (inactive)
[41]
  GI50: 0.695 µM (active)
[42]
  GI50: 1 µM (active)
[63]
  GI50: 0.419 µM (active)
[43]
  GI50: 1.65 µM (inactive)
[44]
  GI50: 1.07 µM (active)
[45]
  GI50: 0.692 µM (active)
[46]
  GI50: 1.39 µM (inactive)
[47]
  GI50: 1.61 µM (inactive)

## O=[N+]([O-])C=C(c1ccc(Cl)cc1)c1ccc(Cl)cc1
[1]
  GI50: 16.5 µM (inactive)
[2]
  GI50: 20 µM (inactive)
[3]
  GI50: 19.7 µM (inactive)
[4]
  GI50: 16.7 µM (inactive)
[5]
  GI50: 16.6 µM (inactive)
[6]
  GI50: 22 µM (inactive)
[49]
  GI50: 3.85 µM (inactive)
[7]
  GI50: 13.9 µM (inactive)
[8]
  GI50: 15.2 µM (inactive)
[64]
  GI50: 5.69 µM (inactive)
[9]
  GI50: 17.5 µM (inactive)
[10]
  GI50: 19 µM (inactive)
[11]
  GI50: 17.7 µM (inactive)
[12]
  GI50: 17.2 µM
[51]
  GI50: 17.1 µM (inactive)
[52]
  GI50: 18.6 µM (inactive)
[14]
  GI50: 18.9 µM (inactive)
[15]
  GI50: 28.1 µM (inactive)
[16]
  GI50: 21.3 µM (inactive)
[17]
  GI50: 18.9 µM (inactive)
[18]
  GI50: 14.6 µM (inactive)
[19]
  GI50: 12.7 µM (inactive)
[20]
  GI50: 15.1 µM (inactive)
[21]
  GI50: 14.8 µM (inactive)
[58]
  GI50: 17.9 µM (inactive)
[23]
  GI50: 16.7 µM (inactive)
[24]
  GI50: 9.68 µM (inactive)
[25]
  GI50: 20.3 µM (inactive)
[59]
  GI50: 14.4 µM (inactive)
[61]
  GI50: > 10 µM (inactive)
[26]
  GI50: 13.5 µM (inactive)
[27]
  GI50: 14.5 µM (inactive)
[28]
  GI50: 17.6 µM (inactive)
[29]
  GI50: 11.2 µM (inactive)
[30]
  GI50: 18.7 µM (inactive)
[32]
  GI50: 18.5 µM (inactive)
[33]
  GI50: 17 µM (inactive)
[34]
  GI50: 16.8 µM (inactive)
[35]
  GI50: 29.2 µM (inactive)
[38]
  GI50: 19.5 µM (inactive)
[39]
  GI50: 18.5 µM (inactive)
[40]
  GI50: 21.7 µM (inactive)
[65]
  GI50: 18.2 µM (inactive)
[41]
  GI50: 19.5 µM (inactive)
[42]
  GI50: 16.2 µM (inactive)
[43]
  GI50: 19.4 µM (inactive)
[44]
  GI50: 16.1 µM (inactive)
[45]
  GI50: 20.8 µM (inactive)
[47]
  GI50: 14.2 µM (inactive)

## COc1cc([C@@H]2c3cc4c(cc3[C@@H](NCCCN(C)C)[C@H]3COC(=O)[C@H]23)OCO4)cc(OC)c1O
[4]
  GI50: 0.11 µM (active)
[6]
  GI50: 0.0785 µM (active)
[64]
  GI50: 0.141 µM (active)
[9]
  GI50: 0.526 µM (active)
[10]
  GI50: 0.51 µM (active)
[12]
  GI50: 0.847 µM
[51]
  GI50: 0.0447 µM (active)
[14]
  GI50: 1.62 µM (inactive)
[15]
  GI50: 0.337 µM (active)
[17]
  GI50: 0.834 µM (active)
[18]
  GI50: 0.632 µM (active)
[19]
  GI50: 0.359 µM (active)
[66]
  GI50: 0.569 µM (active)
[58]
  GI50: 0.0436 µM (active)
[22]
  GI50: 0.242 µM (active)
[25]
  GI50: 0.0252 µM (active)
[59]
  GI50: 0.525 µM (active)
[61]
  GI50: 0.729 µM (active)
[27]
  GI50: 1.34 µM (inactive)
[29]
  GI50: 0.48 µM (active)
[32]
  GI50: 0.17 µM (active)
[33]
  GI50: 0.399 µM (active)
[36]
  GI50: 0.264 µM (active)
[37]
  GI50: 0.248 µM (active)
[39]
  GI50: 0.376 µM (active)
[42]
  GI50: 0.381 µM (active)
[44]
  GI50: 0.223 µM (active)
[47]
  GI50: 0.44 µM (active)
